Laboratory results reported in patent US11639494B2, “Culture medium” (Vitrolife Sweden AB, priority 2015, dated 2023).

Assays:
embryos = test: Group embryo culture in 20% oxygen, blastocyst cell numbers by differential staining; format: cell-based, mice; details: 20% O2; for optimal dose (dose that resulted in significantly higher cell numbers): single compound
Procedure: F1 virgin hybrid female mice (C57BL/6×CBA) at 3-4 weeks old were intraperitoneally injected with 5 IU of pregnant mare's serum gonadotrophin. 48 hours later 5 IU of human chorulon gonadotrophin was administered and the female mice mated with F1 male mice >12 weeks old. Successful mating was confirmed by the presence of a vaginal mucus plug the following morning. Pronucleate oocytes were collected 22 hours after hCG injection, in pre-warmed handling medium (G-MOPS) supplemented with 5 mg/ml human sera albumin. Cumulus cells were denuded from the oocytes with GMOPS containing 300 IU/ml hyaluronidase. All embryos were washed twice in G-MOPS media and once in G-1™ medium prior to allocation for culture. Animals were housed in 12 hour light-day photoperiod with food and water available ad libitum.
Embryos were cultured in groups of 10 in 20 ul drops of media under paraffin oil in 6% CO2 in air (atmospheric oxygen ˜20%) or at 6% CO2 5% oxygen at 37° C. in a humidified multi gas incubator (Sanyo MCOK-5M[RC], Japan). Embryos were cultured in G-1™ medium (G-1™ with HSA-Solution™, Vitrolife) for 48 hours and then for a further 48 hours in G-2™ medium (G-2™ with HSA-Solution™, Vitrolife). […] All cultures were performed in 35 mm petri dishes (Falcon, BD Biosciences).
Differential staining of embryos was performed by techniques commonly known in the art to determine the allocation of cells to the inner cell mass (ICM) and trophectoderm (TE) on day 5 (e.g. in the blastocyst). Briefly, after zona removal using pronase, embryos were treated with a complement reaction which labels the in TE nuclei with propidium iodide and leaves the ICM intact and unlabelled. Following bisbenzimide treatment, all nuclei were stained. Embryos were whole-mounted in glycerol and imaged using an inverted fluorescence microscope (Nikon Eclipse TS100) fitted with a digital camera (Nikon digital sight DS-Fi1) and nuclei counted using imaging software ImageJ.
Embryos cultured in control groups were grown in G-™1 and G-2™ medium supplemented with HSA 5 mg/ml (HSA, Vitrolife). Embryos in treatment groups were similarly cultured with Acetyl Carnitine, Acetyl Cysteine or α-Lipoic acid Sigma Aldrich, USA) supplemented in the G-1™ and G-2™ medium at doses of 1, 10 and 100 μM and supplemented with HSA as the control group. […] The “total mean” means the average total number of cells in the embryo (including inner cell mass and trophectoderm) at day 5.
Embryos cultured in control groups were grown in G-1™ and G-2™ medium supplemented with HSA-Solution™ 5 mg/ml. Embryos in treatment groups were similarly cultured with 10 μM Acetyl Carnitine-10 μM Acetyl Cysteine, 10 μM Acetyl Carnitine-5 μM Lipoic acid, 10 μM Acetyl Cysteine-5 μM Lipoic acid, the triple cocktail of 10 μM Acetyl Carnitine-10 μM Acetyl Cysteine 5 μM Lipoic acid supplemented in the G-1™ and G-2™ medium and supplemented with HSA.

glutathione (GSH) = test: BSO/MCB probe dosage optimisation and verification of MCB specificity to glutathione; format: cell-based, mice
Procedure: Embryos were cultured in groups of 10 in 20 ul drops of media under paraffin oil (Ovoil, Vitrolife) in 6% CO2, 20% O2 74% N2 at 37° C. in a humidified multi gas incubator (Sanyo MCOK-5M[RC], Japan). Half of the embryos were allocated to the control group and the other half to the treatment group. Control group embryos were cultured in G-1™ medium (G-1™ with HSA-Solution™, Vitrolife) […]. Treatment group embryos were likewise cultured with the optimal triple antioxidant dose supplemented in the G-1™ medium (as determined in Example 2).
Immediately after collection, pronucleate control embryos were incubated in G-1™ medium spiked with BSO at doses of 0, 50, 100, 200, 400, 800, 1600 μM for 4 hours at 6% CO2, 20% O2 74% N2 at 37° C. Embryos were rinsed thoroughly in G-1™ with HSA-Solution™ media and placed individually in 2 μl drops of GMOPS with HSA-Solution™ (G-MOPS™ Plus, Vitrolife AB, Sweden) made on glass bottom dishes (Fluorodish, Coherent Scientific, Australia) and overlayed with paraffin oil (Ovoil, Vitrolife) for fluorescence imaging. Optimal dosage was determined by recording the fluorescence at 360±40 nm/460±40 nm excitation/emission wavelengths under a fluorescence microscope (Nikon Eclipse TS100). Results were calculated by subtracting the values of blank (embryos with no BSO exposure) and basal levels of the culture media from the fluorescence recorded. […]

Row | SMILES | Total Mean (average total number of cells in the embryo at day 5) (embryos; 1 μM in G-1 and G-2 medium) | Total Mean (average total number of cells in the embryo at day 5) (embryos; 10 μM in G-1 and G-2 medium) | Total Mean (average total number of cells in the embryo at day 5) (embryos; 30 μM in G-1 and G-2 medium) | Total Mean (average total number of cells in the embryo at day 5) (embryos; 1000 μM in G-1 and G-2 medium) | optimal dose (dose that resulted in significantly higher cell numbers) (embryos) [µM] | MCB fluorescence, BSO treated versus non-BSO treated group (glutathione (GSH); 200 μM BSO, 80 μM MCB) | MCB fluorescence compared to groups treated with MCB only (glutathione (GSH); pre-treated with 200 μM BSO, then 10 μM/ml or 40 μmol/ml MCB) | Total Mean (average total number of cells in the embryo at day 5) (embryos; 5 μM in G-1 and G-2 medium) | Total Mean (average total number of cells in the embryo at day 5) (embryos; 20 μM in G-1 and G-2 medium) | Total Mean (average total number of cells in the embryo at day 5) (embryos; 80 μM in G-1 and G-2 medium)
1 | CC(=O)O[C@H](CC(=O)[O-])C[N+](C)(C)C [Acetyl Carnitine, acetyl-L-carnitine] | 95.85 | 107.83 | 86.93 | 67.41 | 10 |  |  |  |  | 
2 | CC(=O)N[C@@H](CS)C(=O)O [Acetyl Cysteine, N-acetyl-L-cysteine] | 81.92 | 109.29 | 104.38 | 95.17 | 10 |  |  |  |  | 
3 | CCCCS(=N)(=O)CCC(N)C(=O)O (centres unmarked) [BSO, buthionine sulfoximine] |  |  |  |  |  | no significant differences | significantly reduced fluorescence |  |  | 
4 | O=C(O)CCCCC1CCSS1 (stereo not drawn) [lipoic acid, α-lipoic acid] |  | 91.3 |  |  | 5 |  |  | 90.2 | 94 | 34.0
